# In PubChem BioAssay AID248 (DTP/NCI, 2004):
# “And” between values parts separate entries of the source, which are not always exact repeats. Equal values may be shown once. Inconclusive results and toxic doses are left out.
# System: L1210 leukemia ip in BDF1 mice, survival T/C
# Assay: NCI In Vivo Anticancer Drug Screen. Data for tumor model L1210 Leukemia (intraperitoneal) in B6D2F1 (BDF1) mice
# Details: endpoint: mean survival time, higher = longer survival
# Summary of the method: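 Tumor cells were implanted, animals were treated, and survival was followed. The result divides the treated measurement by the vehicle-control measurement.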
# [1] = dose: 12.5 mg/kg/injection, schedule: Q04DX002 (ip), vehicle: saline with Tween-80
# [2] = dose: 25.0 mg/kg/injection, schedule: Q04DX002 (ip), vehicle: saline with Tween-80
# [3] = dose: 100.0 mg/kg/injection, schedule: Q01DX009 (ip), vehicle: Klucel (hydroxypropylcellulose) (HPC)
# [4] = dose: 100.0 mg/kg/injection, schedule: Q04DX002 (ip), vehicle: Klucel (hydroxypropylcellulose) (HPC)
# [5] = dose: 200.0 mg/kg/injection, schedule: Q01DX009 (ip), vehicle: Klucel (hydroxypropylcellulose) (HPC)
# [6] = dose: 200.0 mg/kg/injection, schedule: Q04DX002 (ip), vehicle: Klucel (hydroxypropylcellulose) (HPC)
# [7] = dose: 400.0 mg/kg/injection, schedule: Q01DX009 (ip), vehicle: Klucel (hydroxypropylcellulose) (HPC)
# [8] = dose: 400.0 mg/kg/injection, schedule: Q04DX002 (ip), vehicle: Klucel (hydroxypropylcellulose) (HPC)
# [9] = dose: 50.0 mg/kg/injection, schedule: Q01DX009 (ip), vehicle: saline with Tween-80
# [10] = dose: 100.0 mg/kg/injection, schedule: Q01DX001 (ip), vehicle: saline
# [11] = dose: 100.0 mg/kg/injection, schedule: Q01DX009 (ip), vehicle: saline with Tween-80
# [12] = dose: 200.0 mg/kg/injection, schedule: Q01DX001 (ip), vehicle: saline
# [13] = dose: 100.0 mg/kg/injection, schedule: Q04DX003 (ip), vehicle: Klucel (hydroxypropylcellulose) (HPC)
# [14] = dose: 200.0 mg/kg/injection, schedule: Q04DX003 (ip), vehicle: Klucel (hydroxypropylcellulose) (HPC)
# [15] = dose: 400.0 mg/kg/injection, schedule: Q04DX003 (ip), vehicle: Klucel (hydroxypropylcellulose) (HPC)
# [16] = dose: 100.0 mg/kg/injection, schedule: Q01DX009 (ip), vehicle: saline
# [17] = dose: 200.0 mg/kg/injection, schedule: Q01DX009 (ip), vehicle: saline
# [18] = dose: 50.0 mg/kg/injection, schedule: Q01DX009 (ip), vehicle: Klucel (hydroxypropylcellulose) (HPC)
structure (smiles),measurement,setting,value
CC1(C)CC(OP(=O)(OC2CC(C)(C)N(O)C(C)(C)C2)OC2CC(C)(C)N(O)C(C)(C)C2)CC(C)(C)N1O,T/C,"dose: 50.0 mg/kg/injection, schedule: Q01DX001 (ip), vehicle: water",104 % of control
same,T/C,"dose: 100.0 mg/kg/injection, schedule: Q01DX001 (ip), vehicle: water",94 % of control and 97 % of control
same,T/C,"dose: 200.0 mg/kg/injection, schedule: Q01DX001 (ip), vehicle: water",103 % of control
same,T/C,"dose: 400.0 mg/kg/injection, schedule: Q01DX001 (ip), vehicle: water",113 % of control
C[N+](C)(CC(=O)Nc1cc(C(F)(F)F)cc(C(F)(F)F)c1)CC(=O)Nc1ccc(Cl)c(C(F)(F)F)c1,T/C,"dose: 6.25 mg/kg/injection, schedule: Q04DX002 (ip), vehicle: saline with Tween-80",93 % of control
same,T/C,[1],93 % of control
same,T/C,[2],100 % of control and 91 % of control
Cc1cc(C)c(C#N)c(=O)[nH]1,T/C,[3],97 % of control
same,T/C,[4],100 % of control
same,T/C,[5],97 % of control
same,T/C,[6],92 % of control
same,T/C,[7],88 % of control
same,T/C,[8],95 % of control
CC(C)CC(CC(C)C)NCCOC(=O)Cc1ccccc1,T/C,"dose: 75.0 mg/kg/injection, schedule: Q01DX001 (ip), vehicle: other",93 % of control
same,T/C,"dose: 150.0 mg/kg/injection, schedule: Q01DX001 (ip), vehicle: other",89 % of control
CC1(C)COP(=O)(O)OC1,T/C,[9],105 % of control
same,T/C,[10],101 % of control
same,T/C,[11],96 % of control
same,T/C,[12],93 % of control
same,T/C,"dose: 200.0 mg/kg/injection, schedule: Q01DX009 (ip), vehicle: saline with Tween-80",91 % of control
BrCCCCBr,T/C,[10],103 % of control
same,T/C,[12],100 % of control
same,T/C,"dose: 400.0 mg/kg/injection, schedule: Q01DX001 (ip), vehicle: saline",103 % of control
C1=Cc2ccccc2/C1=C/c1ccccc1,T/C,"dose: 100.0 mg/kg/injection, schedule: Q01DX001 (ip), vehicle: other",97 % of control
same,T/C,"dose: 200.0 mg/kg/injection, schedule: Q01DX001 (ip), vehicle: other",95 % of control
same,T/C,"dose: 400.0 mg/kg/injection, schedule: Q01DX001 (ip), vehicle: other",92 % of control
CN=Cc1ccccc1O.CN=Cc1ccccc1O.[Cu+2],T/C,"dose: 4.68 mg/kg/injection, schedule: Q01DX009 (ip), vehicle: acetone",94 % of control
same,T/C,"dose: 9.37 mg/kg/injection, schedule: Q01DX009 (ip), vehicle: acetone",92 % of control
same,T/C,"dose: 18.75 mg/kg/injection, schedule: Q01DX009 (ip), vehicle: acetone",90 % of control
same,T/C,"dose: 18.75 mg/kg/injection, schedule: Q04DX003 (ip), vehicle: acetone",95 % of control
same,T/C,"dose: 37.5 mg/kg/injection, schedule: Q04DX003 (ip), vehicle: acetone",92 % of control
same,T/C,"dose: 75.0 mg/kg/injection, schedule: Q01DX001 (ip), vehicle: acetone",92 % of control
O=C(Nc1cc([N+](=O)[O-])ccc1Cl)Nc1ccccc1C(F)(F)F,T/C,[3],104 % of control
same,T/C,[5],94 % of control
same,T/C,[7],93 % of control
Nc1cc(Cl)c(Cl)cc1S(=O)(=O)O,T/C,[3],101 % of control
same,T/C,[13],102 % of control
same,T/C,[5],98 % of control
same,T/C,[14],98 % of control
same,T/C,[7],92 % of control
same,T/C,[15],96 % of control
CN(C)Cc1ccccc1CO,T/C,"dose: 75.0 mg/kg/injection, schedule: Q04DX002 (ip), vehicle: Klucel (hydroxypropylcellulose) (HPC)",101 % of control
same,T/C,"dose: 150.0 mg/kg/injection, schedule: Q04DX002 (ip), vehicle: Klucel (hydroxypropylcellulose) (HPC)",90 % of control
same,T/C,"dose: 300.0 mg/kg/injection, schedule: Q04DX002 (ip), vehicle: Klucel (hydroxypropylcellulose) (HPC)",97 % of control
O=C(CSc1ccccc1)NCc1cnccn1,T/C,[16],103 % of control
same,T/C,"dose: 100.0 mg/kg/injection, schedule: Q04DX003 (ip), vehicle: saline",92 % of control
same,T/C,[17],102 % of control
same,T/C,"dose: 200.0 mg/kg/injection, schedule: Q04DX003 (ip), vehicle: saline",105 % of control
same,T/C,"dose: 400.0 mg/kg/injection, schedule: Q04DX003 (ip), vehicle: saline",105 % of control
C[C@]12CC[C@H](OC(=O)Cc3ccc(N(CCCl)CCCl)cc3)CC1=CC[C@@H]1[C@@H]2CC[C@]2(C)C(=O)CC[C@@H]12,T/C,"dose: 100.0 mg/kg/injection, schedule: Q04DX003 (ip), vehicle: saline with Tween-80",88 % of control
same,T/C,"dose: 200.0 mg/kg/injection, schedule: Q04DX003 (ip), vehicle: saline with Tween-80",88 % of control
same,T/C,"dose: 400.0 mg/kg/injection, schedule: Q04DX003 (ip), vehicle: saline with Tween-80",88 % of control
CCCCCCCCCCCCCCCC(=O)O[C@@]12C[C@@H](C)[C@@]3(O)[C@@H](C=C(CO)C[C@]4(O)C(=O)C(C)=C[C@@H]34)[C@@H]1C2(C)C,T/C,"dose: 0.06 mg/kg/injection, schedule: Q01DX009 (ip), vehicle: saline",97 % of control
same,T/C,"dose: 0.13 mg/kg/injection, schedule: Q01DX009 (ip), vehicle: saline",107 % of control
same,T/C,"dose: 0.25 mg/kg/injection, schedule: Q01DX009 (ip), vehicle: saline",95 % of control
same,T/C,"dose: 0.5 mg/kg/injection, schedule: Q01DX009 (ip), vehicle: saline",101 % of control
O=[N+]([O-])CC1(O)CCCCC1,T/C,"dose: 25.0 mg/kg/injection, schedule: Q01DX009 (ip), vehicle: Klucel (hydroxypropylcellulose) (HPC)",97 % of control
same,T/C,[18],98 % of control
COc1cccc(NC(=O)NCCCl)c1OC,T/C,[13],107 % of control
same,T/C,[14],96 % of control
same,T/C,[15],102 % of control
CCCCCCCCC(=O)NCc1ccc(OC)cc1,T/C,"dose: 25.0 mg/kg/injection, schedule: Q01DX009 (ip), vehicle: other",93 % of control
same,T/C,"dose: 50.0 mg/kg/injection, schedule: Q01DX009 (ip), vehicle: other",90 % of control
same,T/C,"dose: 100.0 mg/kg/injection, schedule: Q01DX009 (ip), vehicle: other",100 % of control
same,T/C,"dose: 100.0 mg/kg/injection, schedule: Q04DX003 (ip), vehicle: other",95 % of control
same,T/C,"dose: 200.0 mg/kg/injection, schedule: Q01DX009 (ip), vehicle: other",92 % of control
same,T/C,"dose: 200.0 mg/kg/injection, schedule: Q04DX003 (ip), vehicle: other",90 % of control
same,T/C,"dose: 400.0 mg/kg/injection, schedule: Q01DX009 (ip), vehicle: other",91 % of control
same,T/C,"dose: 400.0 mg/kg/injection, schedule: Q04DX003 (ip), vehicle: other",88 % of control
O=C(NCCCc1ccc(S(=O)(=O)F)cc1)Oc1ccc([N+](=O)[O-])cc1,T/C,"dose: 25.0 mg/kg/injection, schedule: Q01DX009 (ip), vehicle: saline with Tween-80",102 % of control
same,T/C,[9],100 % of control
same,T/C,[11],93 % of control and 86 % of control
CN(C)[Se](=O)Cl (configuration not stated),T/C,[1],100 % of control
same,T/C,[2],110 % of control
CC(=N\N=C(N)N)/C(N=Nc1ccc(S(N)(=O)=O)cc1)=N\N=C(N)N,T/C,"dose: 15.0 mg/kg/injection, schedule: Q01DX Z (ip), vehicle: carboxymethylcellulose (CMC)",105 % of control
same,T/C,"dose: 30.0 mg/kg/injection, schedule: Q01DX Z (oral), vehicle: carboxymethylcellulose (CMC)",96 % of control and 102 % of control
same,T/C,"dose: 60.0 mg/kg/injection, schedule: Q01DX Z (ip), vehicle: carboxymethylcellulose (CMC)",160 % of control and 168 % of control and 184 % of control
same,T/C,"dose: 60.0 mg/kg/injection, schedule: Q01DX Z (oral), vehicle: carboxymethylcellulose (CMC)",109 % of control and 120 % of control
same,T/C,"dose: 120.0 mg/kg/injection, schedule: Q01DX Z (oral), vehicle: carboxymethylcellulose (CMC)",113 % of control
CCOC(C(=O)O)(c1ccccc1)c1ccccc1,T/C,[4],97 % of control
same,T/C,[6],97 % of control
O=[N+]([O-])c1ccc(NCc2ccccc2)c2nonc12,T/C,"dose: 50.0 mg/kg/injection, schedule: Q01DX009 (ip), vehicle: saline",113 % of control
same,T/C,[16],98 % of control
same,T/C,[17],113 % of control
CCc1ccccc1NC(=S)Nc1ccccc1,T/C,[4],105 % of control
same,T/C,[6],105 % of control
same,T/C,[8],105 % of control
Cc1ccc(NC(=S)N2CCC(CCCC3CCN(C(=S)Nc4ccc(C)cc4C)CC3)CC2)c(C)c1,T/C,[18],98 % of control
same,T/C,[3],107 % of control
same,T/C,[13],97 % of control
same,T/C,[5],95 % of control
same,T/C,[14],95 % of control
